Test results: patent US7507803B2, “Optimized multi-epitope constructs and uses thereof” (priority 2002, dated 2009)
Like-named read-outs stand apart in the source and are kept apart here. Ends that are not written are not given here.

Legend:
HLA supertype alleles = type: binding, human
H2^bxd mice [1] = test: CTL response after peptide/IFA immunization, in situ ELISA; type: in vivo, mouse; conditions: peptide/IFA immunization of H2^bxd mice
HLA-A*2402 = HLA-A*2402 (Homo sapiens, UniProt P04439, D101N/D140Y/D185E/E176V/E190D/F33S/G103R/G107R/I119L/I121M/I306V/K335N/L105A/L180Q/L300P/N151K/N90K/Q86E/Q94H/R106L/R138H/R89G/T104I/T345S/V100E/W191G/Y123F); test: HLA class I peptide binding assay (purified HLA, IC50)
[2] = test system: HLA-A*0201/K^b transgenic mice; test: CTL response after DNA immunization, 51Cr release assay (lytic units); type: in vivo, mouse
From the text: However, the magnitude and the frequency of the responses varied greatly between epitopes.
This assay to measure CTL activity is well known in the art. […] The LU calculation allows quantifying responses and thus readily comparing different experimental values.

H2^bxd mice [3] = test: HTL responses, primary IFN-γ ELISPOT on CD4 T cells; type: in vivo, mouse
Procedure: H2^bxd mice were immunized intramuscularly with 100 μg of a vaccine HBV HTL epigene construct or the individual peptides emulsified in CFA. Eleven days after the immunization CD4 T cells were purified from splenocytes and HTL responses were measured using a primary IFN-γ ELISPOT assay.
Eleven days after immunization, no booster immunizations were administered, CD4 T cells were purified from the spleen, and peptide specific HTL responses were measured in a primary γ-IFN ELISPOT assay.
The immunogenicity of the HTL epitopes was also characterized using H2^bxd mice.
This construct was tested for immunogenicity in H2^bxd mice (FIG. 28B), measuring IFN-γ production by CD4+ T-lymphocytes using an ELISPOT assay.

[4] = A1 or A24 supertype, three related alleles
[5] = A2, A3 or B7 supertype, five most common members

CC(C)C[C@H](NC(=O)[C@H](C)NC(=O)[C@H](CO)NC(=O)[C@H](C)NC(=O)[C@@H](NC(=O)[C@H](CC(=O)O)NC(=O)[C@H](CC(C)C)NC(=O)[C@H](CC(C)C)NC(=O)[C@@H](N)CC(=O)O)[C@@H](C)O)C(=O)N[C@@H](Cc1ccc(O)cc1)C(=O)O [core 419]
XRN (number of supertype alleles bound ≦500 nM) (HLA supertype alleles; [4]): 3

CC[C@H](C)[C@H](NC(=O)[C@@H](NC(=O)[C@H](Cc1ccccc1)NC(=O)[C@H](CCCNC(=N)N)NC(=O)[C@H](CCCNC(=N)N)NC(=O)[C@H](CC(C)C)NC(=O)[C@H](CS)NC(=O)[C@H](CCSC)NC(=O)[C@H](Cc1c[nH]c2ccccc12)NC(=O)[C@@H](N)CCCNC(=N)N)[C@@H](C)CC)C(=O)O [env 236]
Murine Immunogenicity (SU) (H2^bxd mice [1]): 339.6 SU | XRN (number of supertype alleles bound ≦500 nM) (HLA supertype alleles; [4]): 3

CSCC[C@H](NC(=O)[C@H](CCSC)NC(=O)[C@@H](N)Cc1c[nH]c2ccccc12)C(=O)N[C@@H](Cc1c[nH]c2ccccc12)C(=O)N[C@@H](Cc1ccc(O)cc1)C(=O)N[C@@H](Cc1c[nH]c2ccccc12)C(=O)NCC(=O)N1CCC[C@H]1C(=O)N[C@@H](CO)C(=O)N[C@@H](CC(C)C)C(=O)N[C@@H](Cc1ccc(O)cc1)C(=O)O [env 359]
XRN (number of supertype alleles bound ≦500 nM) (HLA supertype alleles; [4]): 3

CC[C@H](C)[C@H](NC(=O)[C@@H]1CCCN1C(=O)[C@H](CC(C)C)NC(=O)[C@@H](N)CC(C)C)C(=O)N[C@@H](Cc1ccccc1)C(=O)N[C@@H](Cc1ccccc1)C(=O)N[C@@H](CS)C(=O)N[C@@H](CC(C)C)C(=O)N[C@@H](Cc1c[nH]c2ccccc12)C(=O)N[C@H](C(=O)O)C(C)C [env 378]
XRN (number of supertype alleles bound ≦500 nM) (HLA supertype alleles; [5]): 1

C[C@H](N)C(=O)N[C@@H](CO)C(=O)N[C@@H](Cc1ccccc1)C(=O)N[C@@H](CS)C(=O)NCC(=O)N[C@@H](CO)C(=O)N1CCC[C@H]1C(=O)N[C@@H](Cc1ccc(O)cc1)C(=O)O [pol 166]
XRN (number of supertype alleles bound ≦500 nM) (HLA supertype alleles; [4]): 3

N[C@@H](CO)C(=O)N[C@@H](Cc1ccccc1)C(=O)N[C@@H](CS)C(=O)NCC(=O)N[C@@H](CO)C(=O)N1CCC[C@H]1C(=O)N[C@@H](Cc1ccc(O)cc1)C(=O)N[C@@H](CO)C(=O)N[C@@H](Cc1c[nH]c2ccccc12)C(=O)O [pol 167]
XRN (number of supertype alleles bound ≦500 nM) (HLA supertype alleles; [4]): 3 | IC50 (HLA-A*2402): 146 nM

CC(C)[C@H](NC(=O)CNC(=O)CNC(=O)[C@@H](NC(=O)[C@@H](NC(=O)[C@H](CCCNC(=N)N)NC(=O)[C@H](C)NC(=O)[C@@H]1CCCN1C(=O)[C@@H](N)[C@@H](C)O)C(C)C)[C@@H](C)O)C(=O)N[C@@H](Cc1ccccc1)C(=O)O [pol 354]
XRN (number of supertype alleles bound ≦500 nM) (HLA supertype alleles; [5]): 2

CC(C)C[C@H](NC(=O)[C@H](CC(N)=O)NC(=O)[C@@H]1CCCN1C(=O)[C@@H](NC(=O)[C@H](C)NC(=O)[C@H](Cc1ccccc1)NC(=O)[C@H](CCCCN)NC(=O)[C@@H]1CCCN1C(=O)[C@H](Cc1c[nH]c2ccccc12)NC(=O)[C@@H](N)CO)C(C)C)C(=O)O [pol 392]
Murine Immunogenicity (SU) (H2^bxd mice [1]): 261.0 SU | XRN (number of supertype alleles bound ≦500 nM) (HLA supertype alleles; [4]): 2

CC(C)C[C@H](NC(=O)[C@H](CO)NC(=O)[C@@H](N)CC(C)C)C(=O)N[C@@H](CC(=O)O)C(=O)N[C@H](C(=O)N[C@@H](CO)C(=O)N[C@@H](C)C(=O)N[C@@H](C)C(=O)N[C@@H](Cc1ccccc1)C(=O)N[C@@H](Cc1ccc(O)cc1)C(=O)O)C(C)C [pol 415]
XRN (number of supertype alleles bound ≦500 nM) (HLA supertype alleles; [4]): 3

CC(C)C[C@H](NC(=O)[C@H](CCCNC(=N)N)NC(=O)[C@H](C)NC(=O)[C@@H](NC(=O)[C@H](Cc1ccc(O)cc1)NC(=O)[C@H](CCCNC(=N)N)NC(=O)[C@H](CO)NC(=O)[C@H](CC(C)C)NC(=O)CN)C(C)C)C(=O)O [pol 455]
XRN (number of supertype alleles bound ≦500 nM) (HLA supertype alleles; [5]): 3

CC(C)C[C@H](NC(=O)[C@H](CS)NC(=O)[C@H](Cc1c[nH]cn1)NC(=O)[C@@H]1CCCN1C(=O)[C@H](Cc1ccccc1)NC(=O)[C@H](C)N)C(=O)N[C@@H](C)C(=O)N[C@@H](Cc1ccccc1)C(=O)O [pol 529]
XRN (number of supertype alleles bound ≦500 nM) (HLA supertype alleles; [4]): 3

CC[C@H](C)[C@H](NC(=O)CNC(=O)[C@H](CC(C)C)NC(=O)[C@H](CO)NC(=O)[C@H](CC(C)C)NC(=O)[C@H](CC(C)C)NC(=O)[C@@H](N)Cc1ccccc1)C(=O)N[C@@H](Cc1c[nH]cn1)C(=O)N[C@@H](CC(C)C)C(=O)O [pol 562]
XRN (number of supertype alleles bound ≦500 nM) (HLA supertype alleles; [5]): 3

CSCC[C@H](NC(=O)[C@H](CC(C)C)NC(=O)[C@H](C)NC(=O)[C@@H]1CCCN1C(=O)[C@H](Cc1ccc(O)cc1)NC(=O)CN)C(=O)N1CCC[C@H]1C(=O)N[C@@H](CC(C)C)C(=O)N[C@@H](Cc1ccc(O)cc1)C(=O)O [pol 639]
XRN (number of supertype alleles bound ≦500 nM) (HLA supertype alleles; [4]): 2 | IC50 (HLA-A*2402): 280 nM

CC[C@H](C)[C@H](NC(=O)[C@H](CS)NC(=O)[C@H](C)NC(=O)[C@H](Cc1ccc(O)cc1)NC(=O)[C@H](CC(C)C)NC(=O)[C@@H]1CCCN1C(=O)[C@H](CCSC)NC(=O)[C@H](CC(C)C)NC(=O)[C@H](C)N)C(=O)O [pol 642]
XRN (number of supertype alleles bound ≦500 nM) (HLA supertype alleles): 4

CC(C)C[C@H](NC(=O)[C@H](C)NC(=O)[C@H](CO)NC(=O)[C@@H]1CCCN1C(=O)[C@@H](NC(=O)[C@H](Cc1ccc(O)cc1)NC(=O)[C@@H](NC(=O)[C@H](Cc1ccccc1)NC(=O)[C@H](CO)NC(=O)[C@@H](NC(=O)CN)[C@@H](C)O)C(C)C)C(C)C)C(=O)N[C@@H](CC(N)=O)C(=O)N1CCC[C@H]1C(=O)N[C@@H](C)C(=O)N[C@@H](CC(=O)O)C(=O)O [pol 774]
HIV-FT Immunogenicity magnitude ([2]; 100 μg HIV-FT plasmid DNA i.m., CTL response to the epitope): 0 LU | Frequency (fraction of independent cultures yielding positive responses) ([2]; CTL response to the epitope after immunization with epigene construct HIV 1 (20 mer)): 0/8 | HIV-FT Immunogenicity frequency (number cultures >2LU/total tested) ([2]; HIV-FT DNA): 0/8 | HIV-FT Immunogenicity frequency of positive cultures ([2]; HIV-FT DNA, positive = >2LU): 0% | Frequency (fraction of independent cultures yielding positive responses) ([2]; epigene construct HIV 1.1 (10 mer)): 0/4

LWFHISCLTF [core 101]
Murine Immunogenicity (SU) (H2^bxd mice [1]): 0.0 SU | XRN (number of supertype alleles bound ≦500 nM) (HLA supertype alleles; [4]): 3 | IC50 (HLA-A*2402): 6.7 nM

RFSWLSLLVPF [env 332]
Murine Immunogenicity (SU) (H2^bxd mice [1]): 0.0 SU | XRN (number of supertype alleles bound ≦500 nM) (HLA supertype alleles; [4]): 2 | IC50 (HLA-A*2402): 12 nM

B1: HBV HTL: epigene construct encoding 16 HBV HTL epitopes with GPGPG spacers, SEQ ID NO: 73/74 (nucleic acid)
DNA: ATGGGAACTTCTTTTGTGTATGTCCCTTCCGCTCTGAACCCAGCAGACGGACCCGGGCCTGGCCTGTGCCAGGTCTTCGCCGACGCAACTCCCACAGGGTGGGGGCTGGGGCCAGGACCAGGCAGGCACTACCTGCATACTCTGTGGAAGGCAGGAATCCTCTATAAAGGGCCCGGCCCAGGCCCTCACCACACCGCCCTGAGGCAGGCCATCCTGTGCTGGGGGGAGCTCATGACCCTGGCCGGACCTGGACCCGGGGAGAGCAGACTGGTGGTGGATTTCAGCCAATTCAGCAGAGGAAACGGACCCGGCCCTGGGCCTTTTCTGCTGGCTCAGTTTACATCTGCTATTTGTTCTGTGGTCGGCCCCGGGCCCGGACTCGTGCCTTTCGTGCAGTGGTTCGTGGGACTGTCCCCTACAGTCGGGCCCGGCCCAGGGCTGCATCTGTACTCCCACCCAATCATCCTCGGCTTCCGCAAGATTGGACCCGGCCCAGGCTCCAGCAATCTCTCCTGGCTCTCTCTGGACGTGTCTGCCGCCTTTGGCCCTGGACCAGGCCTGCAAAGCCTGACTAATCTGCTCAGCAGCAACCTGTCCTGGCTGGGACCTGGCCCAGGGGCTGGCTTCTTTCTGCTCACCCGGATTCTCACAATTCCCCAGTCCGGACCAGGACCAGGAGTCAGTTTCGGGGTGTGGATCAGGACCCCTCCTGCTTATAGACCACCCAATGCTCCAATCGGCCCCGGCCCTGGCGTCGGGCCACTGACCGTGAATGAGAAGCGCCGGCTGAAGCTGATCGGCCCTGGCCCTGGCAAGCAGTGCTTTCGCAAACTGCCCGTGAACAGACCTATTGATTGGGGCCCCGGCCCTGGAGCAGCCAACTGGATTCTCAGGGGAACAAGCTTCGTCTACGTGCCCGGGCCCGGACCAGGGAAGCAGGCTTTTACCTTCTCTCCCACTTACAAGGCCTTCCTCTGTGGGCCAGGCCCCGGCGCCAAGTTTGTGGCAGCATGGACCCTCAAAGCCGCTGCCTGA
modifications: Hepatitis B virus
Epitopes with responses as vigorous as those induced by peptides emulsified in CFA (%) (H2^bxd mice [3]; 100 μg i.m., IFN-γ production by CD4+ T-lymphocytes): 50% | Epitopes that failed to induce a response (H2^bxd mice [3]; mouse, in vivo): two | Epitopes with responses as vigorous as those induced by peptides emulsified in CFA (fraction of epitopes tested) (H2^bxd mice [3]; mouse, in vivo): 6/12
